Test results published in patent US20080096858A1, “Method of Stabilizing Disordered Cefovecin Sodium Salt” (UNIVERSITY OF CONNECTICUT, priority 2004, published 2008).

Legend:
[1] = Storage stability at 40° C. of cefovecin sodium salt annealed at 75° C., monitored by RP-HPLC (Example 1); details: for relative rate constant k/k0 / degradation rate constant k: storage at 40° C.; for degradation rate constant k: zero-order model, SD in ( )
Procedure: Cefovecin sodium salt was dissolved in WFI at a concentration of 200 mg cefovecin sodium salt/ml. This solution was filtered using 0.22μ sterilized filters. 4.25 ml of this solution was volumetrically filled in the laminar flow hood into a 20-ml Flint Type I Tubular Treated Vials. 20 mm Lyophile D777-1, B2TR FluoroTec Single Vent Stoppers were partially inserted in the vials. The vials were lyophilized using Vertis freeze dryer (Gardiner, N.Y.) using the following cycle: frozen at −40° C. followed by vacuum drying at the shelf temperature of −18° C. for approximately 42 hours, and 60 millitore vacuum; secondary dried at a temperature of 40° C. for approximately 12 hours and 60 millitore vacuum. The lyophilizer chamber was back flushed with nitrogen and the vials were capped and sealed with aluminum shells.
Amorphous lyophilized cefovecin sodium salt was annealed in sealed vials at 75° C. for 20 and 60 min. The sealed vials with untreated cefovecin sodium salt (control), and vials with annealed cefovecin sodium salt were stored at 40° C. at ambient humidity for 6 and 12 weeks.
(§1) Reverse Phase High Performance Liquid Chromatography (RP-HPLC) was used to monitor degradation of cefovecin sodium salt. HPLC was carried out with a Waters Alliance (Milford, Mass.) system with a UV detector set at 256 nm and a Kromasil C4 column 4.6×250 mm, 5 μm, 100 angstrom pore size (Waters, Milford, Mass.). Column temperature was 30±2° C. and the samples were maintained in the auto sampler at 5±3° C. and the flow rate was 1 mL/min. Gradient method was used with mobile phase A consisting of (9:1) 0.025M sodium phosphate buffer solution, pH 6.5: acetonitrile in HPLC grade water, and mobile phase B consisting of (4:6) 0.025M sodium phosphate buffer solution, pH 6.5: acetonitrile in HPLC grade water.
(§2) The lyophilized cake was dissolved in WFI, and the solution was injected into the HPLC column. Contents of cefovecin sodium salt and a main degradant with relative retention time of approximately 1.6 were calculated as Ac/ΣAi, where Ac is the peak area of either cefovecin sodium salt or the degradant, and ΣAi is a total area of all chromatographic peaks. […] Stability data obtained for two annealed samples and the control sample are graphically illustrated in FIG. 1.
In addition, relative rate constants, k/k0 (where k0 is the rate constant of the control) were calculated in relation to control. The k/k0 are plotted in FIG. 2 as a function of annealing time at 75° C.

[2] = Storage stability at 40° C. for 6 months of cefovecin sodium salt annealed at 60° C., monitored by RP-HPLC (Example 2)
Procedure: as §1, §2
Amorphous lyophilized cefovecin sodium salt was annealed in sealed vials at 60° C. for 300 min in a contract lab, UCONN, Storrs, Conn. Untreated samples (control), and annealed samples were placed on stability at 40° C. for 6 months. Reverse Phase High Performance Liquid Chromatography was used to monitor degradation as described in Example 1.

[3] = HPLC purity of thermally treated freeze-dried cefovecin sodium salt (Example 3, Table 3)
Procedure: as §1, §2
A freeze-dried formulation that contains cefovecin sodium salt was prepared as follows. Cefovecin sodium salt was dissolved in citrate buffer at pH 6.7. […] The solution contained 200 mg/ml of cefovecin sodium salt, 50 mM citrate buffer, 4.5 mg/ml methylparaben, and 0.5 mg/ml propylparaben. The solution was filled in 20 ml glass vials, 4.25 ml/vial. The vials were partially stoppered with single-vent D777-1 and loaded into a freeze-drier (Hull 450 FXS800S, Warminster, Pa.). The solution was frozen at −40° C. followed by primary drying at the shelf temperature of −10° C. and approximately 200 millitore vacuum; after the product temperature approached −12° C., secondary drying was performed at shelf temperature 40° C. for approximately 12 hours and 200 millitore vacuum. Lyophilized cefovecin sodium salt was prepared in a contract facility, SmithKline Beecham Corporation, Conshocken, Pa. […] The lyophilized samples were annealed in sealed vials at 160° C. for 120 min and 170° C./45 min. The untreated samples (control), and annealed samples were tested by HPLC; HPLC conditions are described in Example 1.

[4] = Physical form (crystallization) during thermal treatment; type: physicochemical; details: thermal treatment according to the invention; material remained amorphous
[5] = annealed at 60° C.; stability study at 25 and 40° C.; cited from earlier work
[6] = after storage 12 weeks at 40° C., ambient humidity, annealed at 75° C.
[7] = 0 min annealing at 75° C. (control)
[8] = after storage 6 months at 40° C., annealed at 60° C.

CO/N=C(\C(=O)N[C@@H]1C(=O)N2C(C(=O)[O-])=C([C@@H]3CCCO3)CS[C@H]12)c1csc(N)n1.[Na+] [cefovecin sodium salt]
dimer level of annealed samples compared with control [1, 6]: lower
overall purity of annealed samples compared with control [1, 6]: higher
degradation caused by annealing (initial time points) ([1]; annealing 20 and 60 min at 75° C., lower purity, higher dimer): some degradation
effect of annealing on stability ([1]; annealing at 75° C.): increased the stability
relative rate constant k/k0 [1, 7]: 1.00
degradation rate constant k [1, 7]: −0.12 (0.01) %/week
relative rate constant k/k0 ([1]; annealed 20 min at 75° C.): 0.82
degradation rate constant k ([1]; annealed 20 min at 75° C.): −0.095 (0.006) %/week
relative rate constant k/k0 ([1]; annealed 60 min at 75° C.): 0.71
degradation rate constant k ([1]; annealed 60 min at 75° C.): −0.082 (0.005) %/week
dimer level of annealed sample compared with control [2, 8]: lower
purity of annealed sample compared with control [2, 8]: higher
purity (cefovecin sodium salt) ([2]; annealed 60° C. 300 min, 0 months at 40° C.): 98.11 area %
purity (cefovecin sodium salt) ([2]; annealed 60° C. 300 min, 6 months at 40° C.): 96.49 area %
effect of annealing on stability ([2]; annealing at 60° C.): increased the stability
purity (cefovecin sodium salt) ([2]; control (not annealed), 0 months at 40° C.): 98.35 area %
purity (cefovecin sodium salt) ([2]; control (not annealed), 6 months at 40° C.): 96.35 area %
Purity ([3]; after annealing 60° C./300 min (Example 2)): 98.1 area %
Purity ([3]; after annealing 75° C./20 min (Example 1)): 97.5 area %
Purity ([3]; after annealing 75° C./60 min (Example 1)): 97.5 area %
Purity ([3]; after annealing 160° C./120 minutes, freeze-dried formulation with citrate buffer, methylparaben, propylparaben (Example 3)): 69.8 area %
Purity ([3]; after annealing 170° C./45 minutes, freeze-dried formulation with citrate buffer, methylparaben, propylparaben (Example 3)): 70.3 area %
degradation caused by annealing ([3]; annealing at 160° C. and 170° C.): unacceptable levels of degradation
degradation caused by thermal treatment compared with examples 1 and 2 ([3]; treatment at both 160° C. and 170° C.): significant degradation
crystallization during thermal treatment [4]: did not occur

CO[C@@]1(NC(=O)C(C(=O)[O-])c2ccc(O)cc2)C(=O)N2C(C(=O)[O-])=C(CSc3nnnn3C)COC21.[Na+].[Na+] (some centres unmarked) [moxalactam, moxalactam (di-sodium salt)]
rate of decarboxylation of annealed sample compared with control [5]: lower
